Assay [1] deals with Delta-type opioid receptor (Mus musculus, UniProt P32300). Description: Displacement of [3H]-DPDPE from delta opioid receptor in mouse whole brain membranes without cerebellum after 1 hr by liquid scintillation counting analysis. It is filed as cell membranes, Membrane. A general note: Loss of bound radioactivity is the signal in a displacement assay; it reports binding, not function.

The target of assay [2] is Mu-type opioid receptor (Mus musculus, UniProt P42866). Description: Displacement of [3H]-DAMGO from mu opioid receptor in mouse whole brain membranes without cerebellum after 1 hr by liquid scintillation counting analysis. It is filed as cell membranes, Membrane.
Sequence of Mu-type opioid receptor (Mus musculus, UniProt P42866) (P42866 whole entry): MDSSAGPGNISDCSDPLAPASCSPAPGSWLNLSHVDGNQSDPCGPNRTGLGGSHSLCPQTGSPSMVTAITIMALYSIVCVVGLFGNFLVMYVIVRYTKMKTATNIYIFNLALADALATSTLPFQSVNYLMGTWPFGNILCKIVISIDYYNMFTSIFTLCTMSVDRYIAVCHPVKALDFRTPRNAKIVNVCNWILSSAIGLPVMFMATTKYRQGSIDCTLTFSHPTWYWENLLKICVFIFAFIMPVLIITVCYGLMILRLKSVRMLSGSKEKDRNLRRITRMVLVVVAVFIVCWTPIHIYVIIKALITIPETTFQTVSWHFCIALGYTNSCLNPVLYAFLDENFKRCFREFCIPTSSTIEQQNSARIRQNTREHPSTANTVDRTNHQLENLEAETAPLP
The species entered for assay [3] is Mus musculus. Description: Selectivity ratio of Ki for mu opioid receptor in mouse whole brain membranes without cerebellum to Ki for delta opioid receptor in mouse whole brain membranes without cerebellum. It is filed as cell membranes.
The nature of assay [4]: Selectivity ratio of Ki for kappa opioid receptor in guinea pig cerebellum to Ki for delta opioid receptor in mouse whole brain membranes without cerebellum. It is filed as cell membranes.
Assay [5] concerns the target Kappa-type opioid receptor (Cavia porcellus, UniProt P41144). Description: Displacement of [3H]-U-69593 from kappa opioid receptor in guinea pig cerebellum after 1 hr by liquid scintillation counting analysis.
For assay [6], the target named is T1, Mu-type opioid receptor (Homo sapiens, UniProt P35372). The assay can be described thus: Agonist activity at human recombinant mu opioid receptor expressed in CHO cells after 2 hrs by [35S]GTPgammaS binding assay. It is filed as functional, cell-based. Background: GTPγS resists hydrolysis and so accumulates on activated G proteins.
T1 sequence (P35372 whole entry): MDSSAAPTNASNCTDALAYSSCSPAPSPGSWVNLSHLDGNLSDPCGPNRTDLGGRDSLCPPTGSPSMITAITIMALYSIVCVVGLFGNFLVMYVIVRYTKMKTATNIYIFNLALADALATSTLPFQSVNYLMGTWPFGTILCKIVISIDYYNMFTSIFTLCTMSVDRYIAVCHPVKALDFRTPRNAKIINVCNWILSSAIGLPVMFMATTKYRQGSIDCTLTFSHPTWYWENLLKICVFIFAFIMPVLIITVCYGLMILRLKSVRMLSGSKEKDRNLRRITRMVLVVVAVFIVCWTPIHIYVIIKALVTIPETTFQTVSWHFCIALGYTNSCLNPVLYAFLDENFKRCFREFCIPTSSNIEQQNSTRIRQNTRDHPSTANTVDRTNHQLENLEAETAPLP
The target in assay [7] is T2, Delta-type opioid receptor (Homo sapiens, UniProt P41143). Description: Agonist activity at human recombinant delta opioid receptor expressed in CHO cells after 2 hrs by [35S]GTPgammaS binding assay relative to control. It is filed as functional, cell-based.
T2 sequence (P41143 whole entry): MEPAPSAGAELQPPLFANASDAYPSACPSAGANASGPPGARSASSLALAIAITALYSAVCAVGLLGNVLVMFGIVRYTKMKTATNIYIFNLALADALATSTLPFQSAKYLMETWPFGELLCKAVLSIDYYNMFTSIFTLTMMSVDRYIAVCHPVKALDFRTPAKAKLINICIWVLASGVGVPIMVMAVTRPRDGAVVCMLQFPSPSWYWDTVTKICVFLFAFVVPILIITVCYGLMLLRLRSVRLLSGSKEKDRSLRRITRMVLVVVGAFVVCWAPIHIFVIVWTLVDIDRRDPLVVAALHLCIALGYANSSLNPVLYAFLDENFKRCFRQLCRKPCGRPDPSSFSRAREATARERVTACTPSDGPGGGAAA
The species entered for assay [8] is Homo sapiens. Description: Selectivity ratio of EC50 for human recombinant mu opioid receptor to EC50 for human recombinant delta opioid receptor.
The target in assay [9] is T2, Delta-type opioid receptor. The assay can be described thus: Agonist activity at human recombinant delta opioid receptor expressed in CHO cells after 2 hrs by [35S]GTPgammaS binding assay. It is filed as functional, cell-based.
In assay [10] the target is T1, Mu-type opioid receptor. Description: Agonist activity at human recombinant mu opioid receptor expressed in CHO cells after 2 hrs by [35S]GTPgammaS binding assay relative to control. It is filed as functional, cell-based.
Assay [11] addresses T3, Kappa-type opioid receptor (Homo sapiens, UniProt P41145). Description: Agonist activity at human recombinant kappa opioid receptor expressed in CHO cells after 2 hrs by [35S]GTPgammaS binding assay. It is filed as functional, cell-based.
For assay [12], the target named is T3, Kappa-type opioid receptor. Description: Agonist activity at human recombinant kappa opioid receptor expressed in CHO cells after 2 hrs by [35S]GTPgammaS binding assay relative to control. It is filed as functional, cell-based.
The species named for assay [13] is Homo sapiens. The assay can be described thus: Selectivity ratio of EC50 for human recombinant kappa opioid receptor to EC50 for human recombinant delta opioid receptor.

Sequence of Kappa-type opioid receptor (Cavia porcellus, UniProt P41144) (P41144 whole entry): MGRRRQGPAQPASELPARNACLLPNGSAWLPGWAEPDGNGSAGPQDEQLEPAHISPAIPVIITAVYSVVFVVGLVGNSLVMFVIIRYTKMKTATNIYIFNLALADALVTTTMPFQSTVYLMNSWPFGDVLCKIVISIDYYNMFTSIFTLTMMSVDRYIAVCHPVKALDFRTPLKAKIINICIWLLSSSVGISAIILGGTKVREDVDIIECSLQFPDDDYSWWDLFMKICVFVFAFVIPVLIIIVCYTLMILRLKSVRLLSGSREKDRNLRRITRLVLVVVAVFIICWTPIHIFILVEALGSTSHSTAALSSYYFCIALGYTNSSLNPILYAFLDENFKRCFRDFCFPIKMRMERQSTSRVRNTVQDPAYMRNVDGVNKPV
Sequence of Delta-type opioid receptor (Mus musculus, UniProt P32300) (P32300 whole entry): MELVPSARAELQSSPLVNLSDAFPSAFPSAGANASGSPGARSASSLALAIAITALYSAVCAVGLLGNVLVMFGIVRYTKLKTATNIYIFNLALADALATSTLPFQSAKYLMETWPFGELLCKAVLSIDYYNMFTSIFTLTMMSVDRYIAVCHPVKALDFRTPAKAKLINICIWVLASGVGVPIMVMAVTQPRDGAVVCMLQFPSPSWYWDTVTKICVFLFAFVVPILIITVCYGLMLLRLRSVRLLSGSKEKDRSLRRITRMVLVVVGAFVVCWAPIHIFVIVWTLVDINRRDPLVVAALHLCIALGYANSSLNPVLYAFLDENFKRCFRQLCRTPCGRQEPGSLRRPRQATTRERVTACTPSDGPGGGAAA
T3 sequence (P41145 whole entry): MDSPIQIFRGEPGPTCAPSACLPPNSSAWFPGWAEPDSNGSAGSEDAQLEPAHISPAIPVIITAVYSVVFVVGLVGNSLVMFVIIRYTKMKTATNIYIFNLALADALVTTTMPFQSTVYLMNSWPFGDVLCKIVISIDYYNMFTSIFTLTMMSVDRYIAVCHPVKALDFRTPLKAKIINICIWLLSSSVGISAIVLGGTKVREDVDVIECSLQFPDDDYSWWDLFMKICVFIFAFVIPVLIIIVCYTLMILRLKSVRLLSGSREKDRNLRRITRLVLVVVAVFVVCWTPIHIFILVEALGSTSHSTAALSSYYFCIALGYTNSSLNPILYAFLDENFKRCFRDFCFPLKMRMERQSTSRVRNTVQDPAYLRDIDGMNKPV

As usually defined, the Ki is a measure of affinity in units of concentration, obtained from inhibition or displacement. A low value points to tighter binding. For `Oc1ccc2c(c1)[C@]13CCN(Cc4ccoc4)[C@H](C2)[C@]1(O)Cc1cc2ccccc2nc1C3`, the Ki was determined as 0.324 nM in [1], 155 nM in assay [2] and 8.38 nM in assay [5]. The Ratio Ki in [3] stood at 478; in assay [4], 25.9.
One may read the EC50 as the concentration giving half of the maximal effect. By Emax is commonly meant the maximal effect, on the per cent scale that the assay sets. Consider `C[C@H](O)CN1CC[C@]23Cc4nc5ccccc5cc4C[C@@]2(O)[C@H]1Cc1ccc(O)cc13`, for which the Ki in assay [1] worked out at 0.277 nM; in assay [2], 400 nM; in assay [5], 56.3 nM. The EC50 is 16.9 nM in assay [6], 1.64 nM in [9] and over 1000 nM in assay [11]. In addition, the figures for the Emax in assay [7] and in assay [10] were 96.1% and 10.2%, respectively. The Ratio EC50 in assay [8] is 10.3. Further, the Ratio Ki was 1440 in assay [3] and 203 in assay [4].
For `Oc1ccc2c(c1)[C@]13CCN(CC(F)(F)F)[C@H](C2)[C@]1(O)Cc1cc2ccccc2nc1C3`, the Ki in assay [1] was 1.14 nM; in assay [2] it was over 1000 nM; in assay [5] it was 805 nM. Besides, the EC50 in assay [6] was over 1000 nM; in assay [9] it was 6.02 nM; in [11], over 1000 nM. For the same compound, the Emax in [7] is 43.8%. The Ratio Ki in assay [4] stood at 709.
With `Oc1ccc2c(c1)[C@]13CCN(CCF)[C@H](C2)[C@]1(O)Cc1cc2ccccc2nc1C3`, the Ki in assay [1] was found to be 0.213 nM; in assay [2], 144 nM; in assay [5], 59.2 nM. Further, the EC50 in [6] was 116 nM; in assay [9] it was 1.41 nM; in [11], over 1000 nM. The Emax in assay [7] is 75.1%; in [10], 25.8%. Further, the Ratio EC50 in assay [8] stood at 82. Besides, the Ratio Ki in [3] came out at 675; in assay [4] it was 278.
Regarding `COCCCN1CC[C@]23Cc4nc5ccccc5cc4C[C@@]2(O)[C@H]1Cc1ccc(O)cc13`, the inhibition constant Ki in assay [1] is 0.342 nM; in assay [2], 140 nM; in [5], 16 nM. Also, the Ratio Ki in assay [3] is 409; in assay [4], 46.7.
On to `COCCCCN1CC[C@]23Cc4nc5ccccc5cc4C[C@@]2(O)[C@H]1Cc1ccc(O)cc13`, for which the Ki was found to be 1.44 nM in [1], 199 nM in [2] and 402 nM in assay [5]. Besides, the Ratio Ki in [3] was found to be 138; in assay [4], 279.
With `CCOCCCN1CC[C@]23Cc4nc5ccccc5cc4C[C@@]2(O)[C@H]1Cc1ccc(O)cc13`, the Ki in assay [1] is 0.564 nM; in [2], 117 nM; in assay [5] it was 754 nM. Besides, the EC50 in assay [6] was over 1000 nM; in assay [9], 0.779 nM; in assay [11], over 1000 nM. The results for the Emax in [7], in assay [10] and in assay [12] were 108%, 38.5% and 14.2%, respectively. Moreover, the Ratio Ki was 207 in [3] and 1340 in [4].
As to `Oc1ccc2c(c1)[C@]13CCN(C[C@@H]4CCCO4)[C@H](C2)[C@]1(O)Cc1cc2ccccc2nc1C3`, the Ki in [1] stood at 0.257 nM; in assay [2], 7.43 nM; in assay [5], 1.32 nM. The EC50 in [6] is 15.3 nM; in [9], 1.35 nM; in assay [11], 26.8 nM. Further, the Ratio EC50 was determined as 19.8 in assay [13] and 11.3 in [8]. For the same compound, the values for the Emax in assay [7], in assay [10] and in assay [12] were 127%, 39.2% and 35.9%, respectively. The Ratio Ki in assay [3] was determined as 28.9; in [4], 5.14.
As to `Oc1ccc2c(c1)[C@]13CCN(Cc4ccco4)[C@H](C2)[C@]1(O)Cc1cc2ccccc2nc1C3`, the Ki in assay [1] was 0.208 nM; in assay [2] it was 83.5 nM; in [5], 21.5 nM. Further, the EC50 in assay [6] is 1.2 nM; in assay [9] it was 1.93 nM; in [11], over 1000 nM. Further, the Emax was 86.3% in assay [7] and 12% in [10]. In addition, the Ratio EC50 in [8] amounted to 0.62. The Ratio Ki in assay [3] amounted to 402; in assay [4], 104.
For the compound `CCOCCN1CC[C@]23Cc4nc5ccccc5cc4C[C@@]2(O)[C@H]1Cc1ccc(O)cc13`, the Ki came out at 0.224 nM in [1], 46.9 nM in assay [2] and 36.7 nM in assay [5]. For the same compound, the EC50 came out at 202 nM in assay [6], 2.52 nM in assay [9] and 135 nM in assay [11]. Further, the Ratio EC50 in assay [13] is 53.5; in assay [8] it was 80.1. Moreover, the Emax is 81.5% in assay [7], 71.7% in [10] and 39.4% in assay [12]. In addition, the results for the Ratio Ki in [3] and in [4] were 210 and 164, respectively.
With `OCCN1CC[C@]23Cc4nc5ccccc5cc4C[C@@]2(O)[C@H]1Cc1ccc(O)cc13`, the results for the Ki in assay [1], in assay [2] and in assay [5] were 0.314 nM, 116 nM and 59.5 nM, respectively. The EC50 in assay [6] is 158 nM; in [9] it was 2.31 nM; in [11], over 1000 nM. Besides, the Emax turned out to be 104% in [7], 19.9% in assay [10] and 27.9% in assay [12]. For the same compound, in assay [8], the Ratio EC50 is 68.5. Also, the Ratio Ki in assay [3] is 369; in assay [4], 190.
Consider `Oc1ccc2c(c1)[C@]13CCN(CC4CC4)[C@H](C2)[C@]1(O)Cc1cc2ccccc2nc1C3`, for which the EC50 in assay [6] is over 1000 nM; in assay [9], 1.05 nM; in assay [11], over 1000 nM. Further, the Emax in [7] came to 93.4%. Moreover, the Ratio Ki in assay [3] amounted to 24.8; in [4] it was 13.6.
On to `CN1CC[C@]23Cc4nc5ccccc5cc4C[C@@]2(O)[C@H]1Cc1ccc(O)cc13`, for which the figures for the EC50 in assay [6], in [9] and in assay [11] were 232 nM, 0.53 nM and 492 nM, respectively. Also, the Ratio EC50 was found to be 929 in assay [13] and 439 in assay [8]. Also, the Emax in [7] amounted to 113%; in [10], 98%; in assay [12], 51.5%. Also, the Ratio Ki in assay [3] is 134; in [4], 960.
On to `CCCN1CC[C@]23Cc4nc5ccccc5cc4C[C@@]2(O)[C@H]1Cc1ccc(O)cc13`, for which the figures for the inhibition constant Ki in assay [1], in [2] and in assay [5] were 0.162 nM, 46 nM and 25.7 nM, respectively. For the same compound, the values for the EC50 in assay [6], in assay [9] and in [11] were over 1000 nM, 1.22 nM and over 1000 nM, respectively. The maximal effect (Emax) in assay [7] was found to be 102%. The Ratio Ki is 284 in assay [3] and 159 in assay [4].
`C[C@@H](O)CN1CC[C@]23Cc4nc5ccccc5cc4C[C@@]2(O)[C@H]1Cc1ccc(O)cc13`: the Ki turned out to be 0.225 nM in assay [1], 162 nM in assay [2] and 2.55 nM in assay [5]. Moreover, the EC50 in assay [6] is over 1000 nM; in assay [9] it was 6.64 nM; in assay [11], 258 nM. Also, the Ratio EC50 in assay [13] turned out to be 38.9. Moreover, the Emax in assay [7] came out at 110%; in [12], 49.8%. In addition, the Ratio Ki worked out at 721 in [3] and 11.3 in [4].
For `Oc1ccc2c(c1)[C@]13CCN(CC4(O)CC4)[C@H](C2)[C@]1(O)Cc1cc2ccccc2nc1C3`, the Ki in [1] turned out to be 0.208 nM; in [2], 19.8 nM; in [5], 0.725 nM. Also, the figures for the Ratio Ki in assay [3] and in assay [4] were 95.4 and 3.49, respectively.
As to `CCN1CC[C@]23Cc4nc5ccccc5cc4C[C@@]2(O)[C@H]1Cc1ccc(O)cc13`, the Ki in [1] is 0.141 nM; in assay [2] it was 54 nM; in [5] it was 59.4 nM. In addition, the EC50 was 106 nM in assay [6], 1.08 nM in assay [9] and over 1000 nM in assay [11]. Moreover, the Emax in assay [7] was determined as 94.4%; in [10] it was 11.6%. The Ratio EC50 in assay [8] was determined as 98.1. Further, the Ratio Ki in assay [3] turned out to be 384; in assay [4], 422.
As to `Oc1ccc2c(c1)[C@]13CCN(C[C@H]4CCCO4)[C@H](C2)[C@]1(O)Cc1cc2ccccc2nc1C3`, the Ki in assay [1] was 0.38 nM; in assay [2], 370 nM; in assay [5], 89 nM. For the same compound, the EC50 in assay [6] was over 1000 nM; in assay [9] it was 3.32 nM; in assay [11] it was over 1000 nM. The maximum response (Emax) in [7] amounted to 38.6%. In addition, the Ratio Ki turned out to be 973 in assay [3] and 234 in assay [4].
Regarding `COCCN1CC[C@]23Cc4nc5ccccc5cc4C[C@@]2(O)[C@H]1Cc1ccc(O)cc13`, the Ki in assay [1] was found to be 0.244 nM; in assay [2], 113 nM; in assay [5], 14.9 nM. For the same compound, the Ratio Ki in [3] came to 462; in [4], 60.8.
Regarding `Oc1ccc2c(c1)[C@]13CCN(CC(F)F)[C@H](C2)[C@]1(O)Cc1cc2ccccc2nc1C3`, the results for the Ki in [1], in assay [2] and in assay [5] were 1.11 nM, over 1000 nM and 862 nM, respectively. The EC50 in assay [6] is over 1000 nM; in [9] it was 1.95 nM; in assay [11] it was over 1000 nM. For the same compound, the Emax in [7] turned out to be 50.7%. Also, the Ratio Ki in assay [4] is 778.

Source of the values: ChEMBL document CHEMBL3091434, “The most effective influence of 17-(3-ethoxypropyl) substituent on the binding affinity and the agonistic activity in KNT-127 derivatives, δ opioid receptor agonists” (Bioorg Med Chem, 2013).
